# Measured values as given in patent US20110218515A1, “Methods for Treating Acute Myocardial Infarctions and Associated Disorders” (The Regents of the University of California, priority 2009, published 2011).
# Where “and” joins values, the source holds several entries; their conditions need not be identical. Equal entries are not always repeated.
# Tested on: ischemia-reperfusion rat model
# Assay: Serial echocardiography in ischemia-reperfusion MI rats
# Type: in vivo, Sprague-Dawley rats
# Conditions: for LV ejection fraction at 5 weeks: 5 weeks post-MI, after four weeks feed with 1.2% pirfenidone
# Procedure: In this example, a protocol is described for examining the ventricular function, extent of fibrosis and VT inducibility in an ischemia-reperfusion rat model after pirfenidone treatment. Ventricular function was assessed via echocardiography. VT inducibility was assessed by programmed stimulation and EP study. The electrophysiological properties were assessed using high-resolution optical mapping, and the extent of fibrosis was studied using standard histological techniques.
# After baseline echocardiography, thirty male Sprague-Dawley rats, ages 6-10 weeks, underwent myocardial infarction using an ischemia-reperfusion model. Briefly, rats were anesthetized using inhaled isoflurane (5% induction, 2.5% maintenance, O2 output 1 L/min) and positioned supine on an electrically warmed animal surgery platform. Rats were intubated using a 16-gauge i.v. catheter and then ventilated using a Harvard rodent respirator. After a left thoracotomy and pericardiotomy were performed, a 7-0 Ticron suture was introduced into the myocardium, using the left atrial appendage and right outflow tract as landmarks. The depth of entry was 2 mm, which was slightly greater than the level of the left coronary artery. Both suture ends were then threaded through a PE-90 polyethylene tube 6 in. in length to form a “snare loop” around the artery, closed by pulling on the free ends of the suture. […] The suture was then tightened to occlude the artery for 20 minutes and then removed to allow for reperfusion. The chest was then closed with 5-0 prolene suture, and the animal was allowed to recover. After one week and repeat echocardiography, rats were randomized to placebo rodent feed (control group, n=15) or rodent feed mixed with 1.2% pirfenidone (PFD) (treatment group, n=15) for four weeks. All experiments and data analyses were performed with the operator blinded to treatment group.
# At baseline, and at 1 wk and 5 wk after infarction, a commercially available high-resolution echocardiographic system (Vevo 660, VisualSonics, Toronto, ON, Canada) equipped with a 25-MHz mechanical transducer was used for echocardiography. Rats were placed supine on a warming platform, and ECG limb electrodes were attached. To minimize ultrasound attenuation, the chests were shaved and cleaned with a chemical hair remover (Nair). Aquasonic 100 gel (Parker Laboratories, Fairfield, N.J.) was applied to the thoracic surface to optimize visibility of the cardiac chambers. Parasternal long-axis and parasternal short-axis two-dimensional views were acquired.
# Using the long-axis view, left ventricular (LV) end-systolic and end-diastolic volumes (ESV and EDV), as well as LV ejection fraction (LVEF), were calculated by using frames with the maximal and minimal cross-sectional area and width. The system software utilizes a formula based on a cylindrical-hemiellipsoid model (volume=8*area2÷3÷length). LVEF was calculated using the following formula: (EDV−ESV)/EDV*100. Fractional shortening (FS) was evaluated from the M mode of the parasternal long-axis view at the papillary muscle level on the basis of the percent changes of LV end-diastolic and end-systolic diameters. LV mass was estimated using the following equation at end diastole: LV mass=1.05*(epicardial volume−endocardial volume), where volume is based on the cylindrical-hemiellipsoid model. These evaluations of LV function in the rodent are well validated. Echocardiographic acquisition and analysis were obtained while blinded to the treatment group.
compound,measurement,setting,value
Cc1ccc(=O)n(-c2ccccc2)c1 [pirfenidone],LV ejection fraction at 1 week,"1 week post-MI, at randomization before treatment",54%
same,LV ejection fraction at 5 weeks,,45%
same,LV ejection fraction at 5 weeks,listed as PFD,36±15%
same,"LV ejection fraction, starting value of the decline","baseline echocardiography, before treatment",66±5%
same,percent decrease in ejection fraction from week 1 to week 5,"treatment period, feed with 1.2% pirfenidone, controls 24.3%, p=0.005",8.6% and 8%
